Tested on: 966289-007-R4-J1-PDC complex spheroid viability
Assay: Anticancer human tumor 966289-007-R4-J1-PDC patient-derived pancreatic adenocarcinoma cell line growth inhibition [RAS]
Conditions: for viability, T/C: stronger effect = lower value; active = viability on the fitted dose curve at most 10% of control; inactive = the rest
How it was run: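 Multi-cell-type spheroids: tumor cells plus HUVEC endothelial cells and mesenchymal stem cells. RAS-pathway inhibitors were combined with targeted agents, each dosed in half-log steps down from clinical Cmax, or from 10 microM when Cmax was unknown.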

[1] = curve of first compound, second compound 0.000949 µM
[2] = curve of first compound, second compound 0.003 µM
[3] = curve of first compound, second compound 0.00949 µM
[4] = curve of first compound, second compound 0.03 µM
[5] = curve of first compound, second compound 0.0949 µM
[6] = curve of first compound, second compound 0.3 µM
[7] = second compound 0.000949 µM, first compound 0.0316 µM
[8] = second compound 0.000949 µM, first compound 0.1 µM
[9] = second compound 0.000949 µM, first compound 0.316 µM
[10] = second compound 0.000949 µM, first compound 1 µM
[11] = second compound 0.003 µM, first compound 0.0316 µM
[12] = second compound 0.003 µM, first compound 0.1 µM
[13] = second compound 0.003 µM, first compound 0.316 µM
[14] = second compound 0.003 µM, first compound 1 µM
[15] = second compound 0.00949 µM, first compound 0.0316 µM
[16] = second compound 0.00949 µM, first compound 0.1 µM
[17] = second compound 0.00949 µM, first compound 0.316 µM
[18] = second compound 0.00949 µM, first compound 1 µM
[19] = second compound 0.03 µM, first compound 0.0316 µM
[20] = second compound 0.03 µM, first compound 0.1 µM
[21] = second compound 0.03 µM, first compound 0.316 µM
[22] = second compound 0.03 µM, first compound 1 µM
[23] = second compound 0.0949 µM, first compound 0.0316 µM
[24] = second compound 0.0949 µM, first compound 0.1 µM
[25] = second compound 0.0949 µM, first compound 0.316 µM
[26] = second compound 0.0949 µM, first compound 1 µM
[27] = second compound 0.3 µM, first compound 0.0316 µM
[28] = second compound 0.3 µM, first compound 0.1 µM
[29] = second compound 0.3 µM, first compound 0.316 µM
[30] = second compound 0.3 µM, first compound 1 µM
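Note: spheroids exposed to agents for one week before readout.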
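Throughout, for viability, T/C: percent viability relative to DMSO vehicle control wells as 100%.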

NC1c2ccccc2OC12CCN(c1cnc3c(N4CCCc5ncccc54)n[nH]c3n1)CC2 (centres undefined) + C#Cc1c(F)ccc2cc(O)cc(-c3ncc4c(N5CC6CCC(C5)N6)nc(OCC56CCCN5CC(F)C6)nc4c3F)c12
inactive: viability, T/C (second compound 0.0316 µM, first compound 0.0316 µM) 118% | viability, T/C (second compound 0.0316 µM, first compound 0.1 µM) 88.8% | viability, T/C (second compound 0.0316 µM, first compound 0.316 µM) 98.4% | viability, T/C (second compound 0.0316 µM, first compound 1 µM) 97.3% | viability, T/C (second compound 0.0316 µM, first compound 3.16 µM) 108% | viability, T/C (second compound 0.0316 µM, first compound 10 µM) 92.7% | viability, T/C (second compound 0.1 µM, first compound 0.0316 µM) 106% | viability, T/C (second compound 0.1 µM, first compound 0.1 µM) 98.1% | viability, T/C (second compound 0.1 µM, first compound 0.316 µM) 95.5% | viability, T/C (second compound 0.1 µM, first compound 1 µM) 108% | viability, T/C (second compound 0.1 µM, first compound 3.16 µM) 99.7% | viability, T/C (second compound 0.1 µM, first compound 10 µM) 109% | viability, T/C (second compound 0.316 µM, first compound 0.0316 µM) 100% | viability, T/C (second compound 0.316 µM, first compound 0.1 µM) 105% | viability, T/C (second compound 0.316 µM, first compound 0.316 µM) 95.5% | viability, T/C (second compound 0.316 µM, first compound 1 µM) 113% | viability, T/C (second compound 0.316 µM, first compound 3.16 µM) 108% | viability, T/C (second compound 0.316 µM, first compound 10 µM) 113% | viability, T/C (second compound 1 µM, first compound 0.0316 µM) 100% | viability, T/C (second compound 1 µM, first compound 0.1 µM) 103% | viability, T/C (second compound 1 µM, first compound 0.316 µM) 118% | viability, T/C (second compound 1 µM, first compound 1 µM) 109% | viability, T/C (second compound 1 µM, first compound 3.16 µM) 95.8% | viability, T/C (second compound 1 µM, first compound 10 µM) 118% | viability, T/C (second compound 3.16 µM, first compound 0.0316 µM) 101% | viability, T/C (second compound 3.16 µM, first compound 0.1 µM) 92.2% | viability, T/C (second compound 3.16 µM, first compound 0.316 µM) 109% | viability, T/C (second compound 3.16 µM, first compound 1 µM) 101% | viability, T/C (second compound 3.16 µM, first compound 3.16 µM) 91.1% | viability, T/C (second compound 3.16 µM, first compound 10 µM) 99.7% | viability, T/C (second compound 10 µM, first compound 0.0316 µM) 105% | viability, T/C (second compound 10 µM, first compound 0.1 µM) 90.1% | viability, T/C (second compound 10 µM, first compound 0.316 µM) 120% | viability, T/C (second compound 10 µM, first compound 1 µM) 98.8% | viability, T/C (second compound 10 µM, first compound 3.16 µM) 108% | viability, T/C (second compound 10 µM, first compound 10 µM) 115%
> 10 µM: IC50 (curve of first compound, second compound 0.0316 µM) | IC50 (curve of first compound, second compound 0.1 µM) | IC50 (curve of first compound, second compound 0.316 µM) | IC50 (curve of first compound, second compound 1 µM) | IC50 (curve of first compound, second compound 3.16 µM) | IC50 (curve of first compound, second compound 10 µM)

Cc1nc(N2CCC3(CC2)COC(C)C3N)c(CO)nc1Sc1ccnc(N)c1Cl (centres undefined) + CCn1c(-c2cccnc2C(C)OC)c2c3cc(ccc31)N1CCOC(CC(NC(=O)C(C(C)C)N(C)C(=O)C3(F)CCN(C(=O)C#CC(C)(C)N(C)C)CC3)C(=O)N3CCCC(N3)C(=O)OCC(C)(C)C2)C1
inactive: viability, T/C [7] 123% | viability, T/C [8] 90.2% | viability, T/C [9] 119% | viability, T/C [10] 70.1% | viability, T/C (second compound 0.000949 µM, first compound 3.16 µM) 67.3% | viability, T/C (second compound 0.000949 µM, first compound 10 µM) 84.8% | viability, T/C [11] 89.2% | viability, T/C [12] 89.6% | viability, T/C [13] 84.7% | viability, T/C [14] 80.3% | viability, T/C (second compound 0.003 µM, first compound 3.16 µM) 86.4% | viability, T/C (second compound 0.003 µM, first compound 10 µM) 88.9% | viability, T/C [15] 80.4% | viability, T/C [16] 83.1% | viability, T/C [17] 87% | viability, T/C [18] 90.5% | viability, T/C (second compound 0.00949 µM, first compound 3.16 µM) 84% | viability, T/C (second compound 0.00949 µM, first compound 10 µM) 82.2% | viability, T/C [19] 92.4% | viability, T/C [20] 84.7% | viability, T/C [21] 89.1% | viability, T/C [22] 82.6% | viability, T/C (second compound 0.03 µM, first compound 3.16 µM) 74.7% | viability, T/C (second compound 0.03 µM, first compound 10 µM) 97.3% | viability, T/C [23] 68.9% | viability, T/C [24] 101% | viability, T/C [25] 95.9% | viability, T/C [26] 90.3% | viability, T/C (second compound 0.0949 µM, first compound 3.16 µM) 106% | viability, T/C (second compound 0.0949 µM, first compound 10 µM) 76.1% | viability, T/C [27] 95.7% | viability, T/C [28] 89.2% | viability, T/C [29] 93.4% | viability, T/C [30] 144% | viability, T/C (second compound 0.3 µM, first compound 3.16 µM) 122% | viability, T/C (second compound 0.3 µM, first compound 10 µM) 114%
> 10 µM: IC50 [1] | IC50 [2] | IC50 [3] | IC50 [4] | IC50 [5] | IC50 [6]

C#Cc1c(F)ccc2cc(O)cc(-c3ncc4c(N5CC6CCC(C5)N6)nc(OCC56CCCN5CC(F)C6)nc4c3F)c12 (centres undefined)
> 10 µM: IC50 (compound alone, run of 06/10/2024)
inactive: viability, T/C (compound 0.316 µM) 114% [middle of 8 runs] | viability, T/C (compound 3.16 µM) 94.4% [middle of 8 runs]

Nc1ccn(C2OC(CO)C(O)C2(F)F)c(=O)n1 (centres undefined) + CCn1c(-c2cc(N3CCN(C)CC3)cnc2C(C)OC)c2c3cc(ccc31)-c1csc(n1)CC(NC(=O)C1CC1C)C(=O)N1CCCC(N1)C(=O)OCC(C)(C)C2
inactive: viability, T/C (second compound 0.000949 µM, first compound 0.00316 µM) 97.8% | viability, T/C (second compound 0.000949 µM, first compound 0.01 µM) 12.9% | viability, T/C (second compound 0.003 µM, first compound 0.00316 µM) 102% | viability, T/C (second compound 0.003 µM, first compound 0.01 µM) 14.8% | viability, T/C (second compound 0.00949 µM, first compound 0.00316 µM) 101% | viability, T/C (second compound 0.00949 µM, first compound 0.01 µM) 13.7% | viability, T/C (second compound 0.03 µM, first compound 0.00316 µM) 97% | viability, T/C (second compound 0.03 µM, first compound 0.01 µM) 19.3% | viability, T/C (second compound 0.0949 µM, first compound 0.00316 µM) 97.2% | viability, T/C (second compound 0.0949 µM, first compound 0.01 µM) 28.2% | viability, T/C (second compound 0.3 µM, first compound 0.00316 µM) 97.6% | viability, T/C (second compound 0.3 µM, first compound 0.01 µM) 61.5%
active: viability, T/C [7] 1.26% | viability, T/C [8] 0.95% | viability, T/C [9] 1.14% | viability, T/C [10] 1.37% | viability, T/C [11] 1.26% | viability, T/C [12] 1.21% | viability, T/C [13] 1.3% | viability, T/C [14] 1.36% | viability, T/C [15] 1.25% | viability, T/C [16] 1.19% | viability, T/C [17] 1.09% | viability, T/C [18] 1.04% | viability, T/C [19] 1.26% | viability, T/C [20] 1.2% | viability, T/C [21] 1.06% | viability, T/C [22] 1.12% | viability, T/C [23] 1.31% | viability, T/C [24] 1.32% | viability, T/C [25] 1.4% | viability, T/C [26] 1.29% | viability, T/C [27] 2.02% | viability, T/C [28] 1.27% | viability, T/C [29] 1.51% | viability, T/C [30] 1.21%
0.0125 µM: IC50 [6]
0.0062 µM: IC50 [3]
0.00634 µM: IC50 [4]
0.00696 µM: IC50 [5]
0.00604 µM: IC50 [1]
0.0063 µM: IC50 [2]
